Measured values taken from US20090130098A1, “Specific therapy using integrin ligands for treating cancer” (Merck Patent GmbH, priority 2006, published 2009).

Columns and labels:
various brain tumors = details: human, in vivo; cited from earlier work
[1] = tested on: newly diagnosed glioblastoma (GBM); assay: Phase I/IIa trial of cilengitide with temozolomide and radiotherapy in newly diagnosed glioblastoma; format: in vivo, human; details: cilengitide 500 mg + TMZ/RT
Method: Purpose: To evaluate safety, toxicity, and efficacy of the combination of the cyclic RGD pentapeptide Cilengitide (=cyclo-(Arg-Gly-Asp-DPhe-NMe-Val)), an inhibitor of integrins αvβ3 and αvβ5, in addition to standard temozolomide (TMZ) and radiotherapy (RT).
Patients and methods: Fifty-two pts (PS 0-1: 92%, 2: 8%; median age 57 yrs) after biopsy (n= 9/17%) or tumor resection (n= 43/83%) were treated with standard TMZ/RT (Stupp et al. NEJM 2005). In addition Cilengitide (500 mg i.v., 2×/week) was started one week before TMZ/RT and given throughout for the duration of chemotherapy or until progression. Primary endpoint was progression free survival rate at 6 months (target: 65%). Patients were followed with MRI every 2 months. Histopathologic diagnosis and MRI imaging were independently reviewed, MGMT promotor methylation status was assessed in 45 (86.5%) pts.

[2] = tested on: recurrent glioblastoma (GBM); assay: Phase IIa trial of cilengitide single agent therapy in recurrent glioblastoma; format: in vivo, human
Method: Background: The present phase IIa study was designed to evaluate the safety, toxicity, and clinical activity of the cyclic RGD pentapeptide cilengitide ((=cyclo-(Arg-Gly-Asp-DPhe-NMe-Val)), an inhibitor of integrins αvβ3 and αvβ5, as a single agent at doses of 500 and 2000 mg in patients (pts) with recurrent glioblastoma (GBM).
Methods: In this multicenter, open-label, randomized, uncontrolled study, pts with GBM and measurable disease that had relapsed after previous therapy with temozolomide and radiotherapy were randomized to receive cilengitide at doses of either 500 mg or 2000 mg i.v., 2×/week, until progression. Histopathology diagnosis and MRI imaging were subject to independent blinded review. The primary endpoint was Progression Free Survival (PFS) at 6 months (mths). Secondary endpoints included response, survival, time to disease progression, safety, tolerability and pharmacokinetics.

Compound: CC(C)[C@H]1C(=O)N[C@@H](CCCN=C(N)N)C(=O)NCC(=O)N[C@@H](CC(=O)O)C(=O)N[C@H](Cc2ccccc2)C(=O)N1C [cilengitide, cyclo-(Arg-Gly-Asp-DPhe-NMeVal)]
- MTD (various brain tumors): no known MTD
- non-hematologic grade 3: constitutional symptoms (asthenia, fatigue, anorexia) [1]: 3 n
- non-hematologic grade 3: deep venous thrombosis and pulmonary embolism [1]: 1 n
- non-hematologic grade 3: elevated liver function tests [1]: 1 n
- sigmoid perforation (grade 2) ([1]; patient with history of sigmoid diverticulosis): One patient
- pts who received 12 or more cycles of therapy ([2]; 500 mg): 4 pts
- pts who received 12 or more cycles of therapy ([2]; 2000 mg): 6 pts
- tumor control, 2000 mg vs 500 mg ([2]; 2000 mg 2x/week, not statistically significant): trend towards better tumor control
- Treatment related NCI CTC grade 3 AE: arthralgia/myalgia ([2]; at 500 mg): 1 patient
- Treatment related NCI CTC grade 3 AE: elevated liver enzymes ([2]; at 500 mg): 1 patient
- Treatment related NCI CTC grade 3 AE: weight increase/edema ([2]; at 2000 mg): 1 patient
- single agent activity in recurrent glioblastoma ([2]; in vivo): advantageous single agent activity
